Test results taken from patent publication US10975056B2 (GlaxoSmithKline Intellectual Property Development Limited, priority 2016, dated 2021).
Where two headings read alike, the source gives them in different places.

Assays:
[1] = biological target: DNMT1 (Homo sapiens, UniProt P26358); assay: DNMT1 biochemical activity, breaklight assay and/or SPA assay
[2] = system: erythroid progenitor cells (EPCs); assay: Fetal hemoglobin (HbF) ELISA in day 7 erythroid progenitor cells; type: cell-based, human; conditions: Homo sapiens, Erythroid progenitor cell, HbF ELISA, day 7 EPCs, 5 days; read-out: EPC ELISA (pEC50 category) (converted);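 note: for fetal hemoglobin induction normalized to vehicle-treated cells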
Procedure, shortened: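 CD34+-derived EPCs, 1,000 cells/well, rhEPO 3 U/mL; Compound A 22-pt series, […]; 5 d, 37° C, 5% CO2. Freeze-thaw lysis, anti-HbF capture + HRP anti-HbF, TMB, OD450. Normalized to DMSO wells.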

[3] = binned activity in either the breaklight or the SPA assay, read-out: DNMT1 BioChemical (pIC50 category) (converted)
[4] = binned activity in either the breaklight or the SPA assay

Chain of DNMT1 (P26358 whole entry, looked up): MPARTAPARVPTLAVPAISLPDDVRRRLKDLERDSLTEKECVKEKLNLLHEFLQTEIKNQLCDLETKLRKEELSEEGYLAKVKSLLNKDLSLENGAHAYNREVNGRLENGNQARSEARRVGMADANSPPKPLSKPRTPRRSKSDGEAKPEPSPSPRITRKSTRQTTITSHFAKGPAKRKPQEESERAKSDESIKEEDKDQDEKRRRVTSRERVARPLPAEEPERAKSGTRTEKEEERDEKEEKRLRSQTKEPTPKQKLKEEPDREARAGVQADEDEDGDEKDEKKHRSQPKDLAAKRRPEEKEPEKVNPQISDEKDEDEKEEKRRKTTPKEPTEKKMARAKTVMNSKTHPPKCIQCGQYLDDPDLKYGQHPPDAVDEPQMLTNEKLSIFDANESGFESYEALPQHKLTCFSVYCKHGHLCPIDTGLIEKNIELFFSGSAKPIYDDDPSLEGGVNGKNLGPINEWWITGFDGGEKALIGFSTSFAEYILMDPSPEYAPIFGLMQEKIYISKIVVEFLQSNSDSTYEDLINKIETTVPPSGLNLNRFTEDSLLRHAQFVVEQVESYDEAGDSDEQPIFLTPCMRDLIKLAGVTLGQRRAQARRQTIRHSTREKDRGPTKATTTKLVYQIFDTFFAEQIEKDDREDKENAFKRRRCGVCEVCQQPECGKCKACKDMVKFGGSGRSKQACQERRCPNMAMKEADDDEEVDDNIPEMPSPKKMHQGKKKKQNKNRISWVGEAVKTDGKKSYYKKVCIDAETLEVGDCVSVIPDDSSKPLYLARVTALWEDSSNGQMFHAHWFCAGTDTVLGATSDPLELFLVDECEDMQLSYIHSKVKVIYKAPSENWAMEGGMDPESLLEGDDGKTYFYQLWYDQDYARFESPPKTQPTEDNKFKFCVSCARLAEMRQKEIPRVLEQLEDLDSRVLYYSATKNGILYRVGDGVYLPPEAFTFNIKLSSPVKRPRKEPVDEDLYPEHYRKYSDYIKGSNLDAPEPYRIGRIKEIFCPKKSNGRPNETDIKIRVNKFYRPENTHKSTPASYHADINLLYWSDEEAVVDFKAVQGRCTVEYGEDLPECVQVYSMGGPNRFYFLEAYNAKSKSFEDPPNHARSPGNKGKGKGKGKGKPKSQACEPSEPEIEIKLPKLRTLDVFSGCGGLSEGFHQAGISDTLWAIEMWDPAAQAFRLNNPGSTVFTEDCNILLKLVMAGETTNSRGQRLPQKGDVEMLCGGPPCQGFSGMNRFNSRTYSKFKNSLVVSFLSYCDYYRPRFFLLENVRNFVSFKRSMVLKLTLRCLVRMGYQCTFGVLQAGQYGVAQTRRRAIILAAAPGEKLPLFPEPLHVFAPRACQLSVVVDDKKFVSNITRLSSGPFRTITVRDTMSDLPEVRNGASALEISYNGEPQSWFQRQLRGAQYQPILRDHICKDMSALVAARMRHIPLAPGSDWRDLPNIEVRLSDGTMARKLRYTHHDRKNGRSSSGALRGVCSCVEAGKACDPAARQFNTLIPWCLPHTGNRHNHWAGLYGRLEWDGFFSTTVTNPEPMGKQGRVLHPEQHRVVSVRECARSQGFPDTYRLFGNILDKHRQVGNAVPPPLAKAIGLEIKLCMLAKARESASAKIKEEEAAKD

| SMILES | IC50 [1, 3] [nM] | EC50 [2] [nM] | DNMT1 BioChemical (pIC50 category) [1, 4] | average pIC50 against DNMT1 ([1]; breaklight assay and/or SPA assay, repeated experimental runs) | IC50 ([1]; breaklight assay and/or SPA assay, repeated experimental runs, read-out: average pIC50 against DNMT1 (converted)) [nM] |
| --- | --- | --- | --- | --- | --- |
| CCc1c(C#N)c(SC(C(N)=O)c2ccccc2)nc(N2CC[C@@H](OP(=O)(O)O)C2)c1C#N (stereo partly drawn) [Example 416, (3R)-1-(6-((2-amino-2-oxo-1-phenylethyl)thio)-3,5-dicyano-4-ethylpyridin-2-yl)pyrrolidin-3-yl dihydrogen phosphate] | 1000 to 31600 | 1000 to 31600 |  |  |  |
| CCc1c(C#N)c(S[C@@H](C(N)=O)c2ccccc2)nc(N2CC[C@H](OP(=O)(O)O)C2)c1C#N [Example 418, (S)-1-(6-(((R-2-amino-2-oxo-1-phenylethyl)thio-3,5-dicyano-4-ethylpyridin-2-yl)pyrrolidin-3-yldihydrogen phosphate] | 1000 to 31600 | > 31600 |  |  |  |
| CCc1c(C#N)c(S[C@@H](C(N)=O)c2ccc(OC)cc2)nc(N2CC[C@H](O)C2)c1C#N [Example 422, (R)-2-((3,5-dicyano-4-ethyl-6-((S)-3-hydroxypyrrolidin-1-yl)pyridin-2-yl)thio)-2-(4-methoxyphenyl)acetamide] |  | < 316 | D (Category D: ≥6.5) |  |  |
| CCc1c(C#N)c(S[C@@H](C(N)=O)c2ccc(Cl)cc2)nc(N2CC[C@H](O)C2)c1C#N [Example 424, (R)-2-(4-chlorophenyl)-2-((3,5-dicyano-4-ethyl-6-((S)-3-hydroxypyrrolidin-1-yl)pyridin-2-yl)thio)acetamide] |  | 316 to 1000 | D (Category D: ≥6.5) |  |  |
| CCc1c(C#N)c(S[C@@H](C(N)=O)c2ccc(F)cc2)nc(N2CC[C@H](OP(=O)(O)O)C2)c1C#N [Example 426, (S)-1-(6-(((R)-2-amino-1-(4-fluorophenyl)-2-oxoethyl)thio)-3,5-dicyano-4-ethylpyridin-2-yl)pyrrolidin-3-yl dihydrogen phosphate] | 1000 to 31600 | > 31600 |  |  |  |
| CCc1c(C#N)c(SC(C(N)=O)c2ccc(F)cc2)nc(N2CC[C@H](O)C2)c1C#N (stereo partly drawn) [Example 427, 2-((3,5-dicyano-4-ethyl-6-((S)-3-hydroxypyrrolidin-1-yl)pyridin-2-yl)thio)-2-(4-fluorophenyl) acetamide] |  | 316 to 1000 | D (Category D: ≥6.5) |  |  |
| CCc1c(C#N)c(SC(C(N)=O)c2ccc(F)cc2F)nc(N2CC[C@H](O)C2)c1C#N (stereo partly shown) [Example 430] |  | 316 to 1000 | D (Category D: ≥6.5) |  |  |

Further lines, results first:

| IC50 [1, 3] [nM] | EC50 [2] [nM] | DNMT1 BioChemical (pIC50 category) [1, 4] | average pIC50 against DNMT1 ([1]; breaklight assay and/or SPA assay, repeated experimental runs) | IC50 ([1]; breaklight assay and/or SPA assay, repeated experimental runs, read-out: average pIC50 against DNMT1 (converted)) [nM] | SMILES |
| --- | --- | --- | --- | --- | --- |
|  | > 31600 | A (Category A: <4.5) |  |  | CCc1c(C#N)c(S[C@H](C(N)=O)c2ccccc2)nc(N2CC[C@H](OP(=O)(O)O)C2)c1C#N [Example 417, (S)-1-(6-(((S)-2-amino-2-oxo-1-phenylethyl)thio)-3,5-dicyano-4-ethylpyridin-2-yl)pyrrolidin-3-yl dihydroden phosphate] |
| 316 to 1000 | 1000 to 31600 |  |  |  | CCc1c(C#N)c(SC(C(N)=O)c2cccc(P(C)(C)=O)c2)nc(N(C)C)c1C#N (stereo not shown) [Example 419, 2-((3,5-Dicyano-6-(dimethylamino)-4-ethylpyridin-2-yl)thio)-2-(3-(dimethylphosphoryl)phenyl)acetamide] |
| 316 to 1000 | 1000 to 31600 |  |  |  | CCc1c(C#N)c(SC(C(N)=O)c2cccc(P(C)(C)=O)c2)nc(N2CC[C@H](O)C2)c1C#N (stereo partly drawn) [Example 420, 2-((3,5-Dicyano-4-ethyl-6-((S)-3-hydroxypyrrolidin-1-yl)pyridin-2-yl)thio)-2-(3-(dimethylphosphoryl)phenyl)acetamide] |
|  | 316 to 1000 | D (Category D: ≥6.5) | > 6.5 | 158 | CCc1c(C#N)c(S[C@@H](C(N)=O)c2ccc(F)cc2)nc(N2CC[C@H](O)C2)c1C#N [Example 425] |
| 316 to 1000 | 316 to 1000 |  |  |  | CCc1c(C#N)c(SC(C(N)=O)c2c(F)cccc2F)nc(N2CC[C@H](O)C2)c1C#N (stereo partly shown) [Example 428] |
| 316 to 1000 | 316 to 1000 |  |  |  | CCc1c(C#N)c(SC(C(N)=O)c2cccc(F)c2F)nc(N2CC[C@H](O)C2)c1C#N (stereo partly shown) [Example 429] |
